ChEMBL document CHEMBL5055633, “Amphipathic Barbiturates as Mimics of Antimicrobial Peptides and the Marine Natural Products Eusynstyelamides with Activity against Multi-resistant Clinical Isolates” (J Med Chem, 2021)

Assays:
Escherichia coli [1] = assay: Antimicrobial activity against New Delhi metallo-beta lactamase-1 producing Escherichia coli 50739822 assessed as reduction in bacterial growth incubated for 48 hrs by microdilution method; format: functional
Pseudomonas aeruginosa [2] = assay: Antimicrobial activity against imipenem-type carbapenemase-14 producing Pseudomonas aeruginosa K44-24 assessed as reduction in bacterial growth incubated for 48 hrs by microdilution method; format: functional
Enterococcus faecium [3] = assay: Antimicrobial activity against extended spectrum-lactamase-carbapenemas producing Enterococcus faecium strain K36-18 assessed as reduction in bacterial growth incubated for 48 hrs by microdilution method; format: functional
[4] = Antimicrobial activity against verona integron-encoded metallo-beta-lactamase -1 producing Klebsiella pneumoniae 50667959 assessed as reduction in bacterial growth incubated for 48 hrs by microdilution method; format: functional
Acinetobacter baumannii [5] = assay: Antimicrobial activity against oxacillinase-23 producing Acinetobacter baumannii K44-35 assessed as reduction in bacterial growth incubated for 48 hrs by microdilution method; format: functional
Escherichia coli [6] = assay: Antimicrobial activity against imipenem-type carbapenemase-26 producing Escherichia coli 50857972 assessed as reduction in bacterial growth incubated for 48 hrs by microdilution method; format: functional
Escherichia coli [7] = assay: Antimicrobial activity against Escherichia coli ATCC 25922 assessed as reduction in bacterial growth incubated for 48 hrs by microdilution susceptibility test; format: functional
Acinetobacter baumannii [8] = assay: Antimicrobial activity against oxacillinase-23 producing Acinetobacter baumannii K63-58 assessed as reduction in bacterial growth incubated for 48 hrs by microdilution method; format: functional
MRC5 = assay: Cytotoxicity against human MRC5 cells assessed as reduction in cell viability incubated for 24 hrs by colorimetric tetrazolium assay; format: functional, cell-based; details: MRC5, 24 h
Escherichia coli [9] = assay: Antimicrobial activity against verona integron-encoded metallo-beta-lactamase-29-producing Escherichia coli 50639799 assessed as reduction in bacterial growth incubated for 48 hrs by microdilution method; format: functional
Enterococcus faecium [10] = assay: Antimicrobial activity against extended spectrum-lactamase-carbapenemas producing Enterococcus faecium strain 50901530 assessed as reduction in bacterial growth incubated for 48 hrs by microdilution method; format: functional
Acinetobacter baumannii [11] = assay: Antimicrobial activity against oxacillinase-24 producing Acinetobacter baumannii K55-13 assessed as reduction in bacterial growth incubated for 48 hrs by microdilution method; format: functional
Staphylococcus aureus [12] = assay: Antimicrobial activity against Staphylococcus aureus ATCC 9144 assessed as reduction in bacterial growth incubated for 48 hrs by microdilution susceptibility test; format: functional
Pseudomonas aeruginosa [13] = assay: Antimicrobial activity against Pseudomonas aeruginosa PAO1 assessed as reduction in bacterial growth incubated for 48 hrs by microdilution susceptibility test; format: functional
[14] = system: Corynebacterium glutamicum; assay: Antimicrobial activity against Corynebacterium glutamicum ATCC 13032 assessed as reduction in bacterial growth incubated for 48 hrs by microdilution susceptibility test; format: functional
[15] = Hemolytic activity in human erythrocytes incubated for 1 hr by microplate reader; format: functional, cell-based; details: erythrocyte
Enterococcus faecium [16] = assay: Antimicrobial activity against extended spectrum-lactamase-carbapenemas producing Enterococcus faecium strain 50758899 assessed as reduction in bacterial growth incubated for 48 hrs by microdilution method; format: functional
Escherichia coli [17] = assay: Antimicrobial activity against oxacillinase-producing Escherichia coli 50579417 assessed as reduction in bacterial growth incubated for 48 hrs by microdilution method; format: functional
Pseudomonas aeruginosa [18] = assay: Antimicrobial activity against New Delhi metallo-beta lactamase-1 producing Pseudomonas aeruginosa 50692172 assessed as reduction in bacterial growth incubated for 48 hrs by microdilution method; format: functional
Enterococcus faecium [19] = assay: Antimicrobial activity against extended spectrum-lactamase-carbapenemas producing Enterococcus faecium strain 50673722 assessed as reduction in bacterial growth incubated for 48 hrs by microdilution method; format: functional
Staphylococcus aureus [20] = assay: Antimicrobial activity against extended spectrum-lactamase-carbapenemas producing Staphylococcus aureus NCTC 10442 assessed as reduction in bacterial growth incubated for 48 hrs by microdilution method; format: functional
Staphylococcus aureus [21] = assay: Antimicrobial activity against extended spectrum-lactamase-carbapenemas producing Staphylococcus aureus strain WIS assessed as reduction in bacterial growth incubated for 48 hrs by microdilution method; format: functional
Pseudomonas aeruginosa [22] = assay: Antimicrobial activity against verona integron-encoded metallo-beta-lactamase-4 producing Pseudomonas aeruginosa K34-73 assessed as reduction in bacterial growth incubated for 48 hrs by microdilution method; format: functional
Escherichia coli [23] = assay: Antimicrobial activity against New Delhi metallo-beta lactamase-1 producing Escherichia coli 50676002 assessed as reduction in bacterial growth incubated for 48 hrs by microdilution method; format: functional
Pseudomonas aeruginosa [24] = assay: Antimicrobial activity against verona integron-encoded metallo-beta-lactamase-2 producing Pseudomonas aeruginosa K34-7 assessed as reduction in bacterial growth incubated for 48 hrs by microdilution method; format: functional
[25] = Antimicrobial activity against New Delhi metallo-beta lactamase-1 Klebsiella pneumoniae K66-45 assessed as reduction in bacterial growth incubated for 48 hrs by microdilution method; format: functional
Staphylococcus aureus [26] = assay: Antimicrobial activity against extended spectrum-lactamase-carbapenemas producing Staphylococcus aureus strain 85/2082 assessed as reduction in bacterial growth incubated for 48 hrs by microdilution method; format: functional
Acinetobacter baumannii [27] = assay: Antimicrobial activity against oxacillinase-58 producing Acinetobacter baumannii K12-21 assessed as reduction in bacterial growth incubated for 48 hrs by microdilution method; format: functional
Enterococcus faecium [28] = assay: Antimicrobial activity against extended spectrum-lactamase-carbapenemas producing Enterococcus faecium strain TUH.50-22 assessed as reduction in bacterial growth incubated for 48 hrs by microdilution method; format: functional
[29] = Antimicrobial activity against carbapenemase producing Klebsiella pneumoniae K47-25 assessed as reduction in bacterial growth incubated for 48 hrs by microdilution method; format: functional
[30] = Antimicrobial activity against oxacillinase-245 producing Klebsiella pneumoniae 50625602 assessed as reduction in bacterial growth incubated for 48 hrs by microdilution method; format: functional
Staphylococcus aureus [31] = assay: Antimicrobial activity against extended spectrum-lactamase-carbapenemas producing Staphylococcus aureus strain IHT 99040 assessed as reduction in bacterial growth incubated for 48 hrs by microdilution method; format: functional
Pseudomonas aeruginosa [32] = assay: Antimicrobial activity against verona integron-encoded metallo-beta-lactamase producing Pseudomonas aeruginosa 50692520 assessed as reduction in bacterial growth incubated for 48 hrs by microdilution method; format: functional
Staphylococcus aureus [33] = assay: Antimicrobial activity against extended spectrum-lactamase-carbapenemas producing Staphylococcus aureus N315 assessed as reduction in bacterial growth incubated for 48 hrs by microdilution method; format: functional
[34] = Antimicrobial activity against New Delhi metallo-beta lactamase-1 and oxacillinase -181 producing Klebsiella pneumoniae 50531633 assessed as reduction in bacterial growth incubated for 48 hrs by microdilution method; format: functional
Acinetobacter baumannii [35] = assay: Antimicrobial activity against oxacillinase-23 producing Acinetobacter baumannii K47-42 assessed as reduction in bacterial growth incubated for 48 hrs by microdilution method; format: functional
HepG2 = assay: Cytotoxicity against human HepG2 cells assessed as reduction in cell viability incubated for 24 hrs by colorimetric tetrazolium assay; format: functional, cell-based; details: HepG2, 24 h

SMILES | MIC (Escherichia coli [1]) | MIC (Pseudomonas aeruginosa [2]) | MIC (Enterococcus faecium [3]) | MIC [4] | MIC (Acinetobacter baumannii [5]) | MIC (Escherichia coli [6]) | MIC (Escherichia coli [7]) | MIC (Acinetobacter baumannii [8]) | IC50 (MRC5) | MIC (Escherichia coli [9]) | MIC (Enterococcus faecium [10]) | MIC (Acinetobacter baumannii [11]) | MIC (Staphylococcus aureus [12]) | MIC (Pseudomonas aeruginosa [13]) | MIC [14] | EC50 [15] | MIC (Enterococcus faecium [16]) | MIC (Escherichia coli [17]) | MIC (Pseudomonas aeruginosa [18]) | MIC (Enterococcus faecium [19]) | also measured
NCCCCN1C(=O)N(CCCCN)C(=O)C(Cc2ccc(C(F)(F)F)cc2)(Cc2ccc(C(F)(F)F)cc2)C1=O.O=C(O)C(F)(F)F.O=C(O)C(F)(F)F | > 32 µg/mL | > 32 µg/mL | > 32 µg/mL | > 32 µg/mL | > 32 µg/mL | > 32 µg/mL | 128 µg/mL | > 32 µg/mL | 16 µg/mL | > 32 µg/mL | > 32 µg/mL | > 32 µg/mL | 64 µg/mL | 64 µg/mL | 4 µg/mL | > 398 µg/mL | > 32 µg/mL | > 32 µg/mL | > 32 µg/mL | > 32 µg/mL | MIC (Staphylococcus aureus [20]): > 32 µg/mL; MIC (Staphylococcus aureus [21]): > 32 µg/mL; MIC (Pseudomonas aeruginosa [22]): > 32 µg/mL; MIC (Escherichia coli [23]): > 32 µg/mL; MIC (Pseudomonas aeruginosa [24]): > 32 µg/mL; MIC [25]: > 32 µg/mL; MIC (Staphylococcus aureus [26]): > 32 µg/mL; MIC (Acinetobacter baumannii [27]): > 32 µg/mL; MIC (Enterococcus faecium [28]): > 32 µg/mL; MIC [29]: > 32 µg/mL; MIC [30]: > 32 µg/mL; MIC (Staphylococcus aureus [31]): > 32 µg/mL; MIC (Pseudomonas aeruginosa [32]): > 32 µg/mL; MIC (Staphylococcus aureus [33]): > 32 µg/mL; MIC [34]: > 32 µg/mL; MIC (Acinetobacter baumannii [35]): > 32 µg/mL; IC50 (HepG2): 40 µg/mL
CC(C)(C)c1cc(CC2(Cc3cc(C(C)(C)C)cc(C(C)(C)C)c3)C(=O)N(CCCCN)C(=O)N(CCCCN)C2=O)cc(C(C)(C)C)c1.O=C(O)C(F)(F)F.O=C(O)C(F)(F)F | 4 µg/mL | 8 µg/mL | 2 µg/mL | 8 µg/mL | 4 µg/mL | 4 µg/mL | 2 µg/mL | 4 µg/mL | 1 µg/mL | 4 µg/mL | 2 µg/mL | 4 µg/mL | 1 µg/mL | 4 µg/mL | 0.25 µg/mL | < 5 µg/mL | 2 µg/mL | 4 µg/mL | 8 µg/mL | 2 µg/mL | MIC (Staphylococcus aureus [20]): 2 µg/mL; MIC (Staphylococcus aureus [21]): 2 µg/mL; MIC (Pseudomonas aeruginosa [22]): 16 µg/mL; MIC (Escherichia coli [23]): 8 µg/mL; MIC (Pseudomonas aeruginosa [24]): 8 µg/mL; MIC [25]: 8 µg/mL; MIC (Staphylococcus aureus [26]): 2 µg/mL; MIC (Acinetobacter baumannii [27]): 4 µg/mL; MIC (Enterococcus faecium [28]): 2 µg/mL; MIC [29]: 16 µg/mL; MIC [30]: 8 µg/mL; MIC (Staphylococcus aureus [31]): 2 µg/mL; MIC (Pseudomonas aeruginosa [32]): 8 µg/mL; MIC (Staphylococcus aureus [33]): 2 µg/mL; MIC [34]: 8 µg/mL; MIC (Acinetobacter baumannii [35]): 4 µg/mL; IC50 (HepG2): 2 µg/mL
CC(C)(C)c1cc(CC2(Cc3cc(C(C)(C)C)cc(C(C)(C)C)c3)C(=O)N(CCCCNC(=N)N)C(=O)N(CCCCNC(=N)N)C2=O)cc(C(C)(C)C)c1.O=C(O)C(F)(F)F.O=C(O)C(F)(F)F | 8 µg/mL | 16 µg/mL | 2 µg/mL | 8 µg/mL | 4 µg/mL | 8 µg/mL | 4 µg/mL | 4 µg/mL | 17 µg/mL | 8 µg/mL | 2 µg/mL | 4 µg/mL | 1 µg/mL | 4 µg/mL | 0.25 µg/mL | < 6 µg/mL | 2 µg/mL | 16 µg/mL | 16 µg/mL | 2 µg/mL | MIC (Staphylococcus aureus [20]): 2 µg/mL; MIC (Staphylococcus aureus [21]): 2 µg/mL; MIC (Pseudomonas aeruginosa [22]): 8 µg/mL; MIC (Escherichia coli [23]): 16 µg/mL; MIC (Pseudomonas aeruginosa [24]): 16 µg/mL; MIC [25]: 8 µg/mL; MIC (Staphylococcus aureus [26]): 2 µg/mL; MIC (Acinetobacter baumannii [27]): 4 µg/mL; MIC (Enterococcus faecium [28]): 2 µg/mL; MIC [29]: 16 µg/mL; MIC [30]: 16 µg/mL; MIC (Staphylococcus aureus [31]): 2 µg/mL; MIC (Pseudomonas aeruginosa [32]): 16 µg/mL; MIC (Staphylococcus aureus [33]): 4 µg/mL; MIC [34]: 16 µg/mL; MIC (Acinetobacter baumannii [35]): 4 µg/mL; IC50 (HepG2): 15 µg/mL
